Laboratory results taken from publication PMC4555095, “Inhibitory effects of magnolol and honokiol on human calcitonin aggregation” (Scientific Reports, 2015).

Target: T1, Human calcitonin (hCT) (Homo sapiens, UniProt P01258)
T1 construct: gene CALCA; mature 32-residue calcitonin peptide cut from the calcitonin precursor; disulfide Cys-1/Cys-7, C terminus amidated; no tag
T1 sequence (P01258 85-116 limits assumed): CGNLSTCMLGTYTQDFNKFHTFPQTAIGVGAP
Assay: isothermal titration calorimetry
Format: binding
Settings: read-out: Kb

Kd [µM] | Structure (SMILES)
2.62 | C=CCc1ccc(O)c(-c2cc(CC=C)ccc2O)c1 [magnolol]
6.49 | C=CCc1ccc(O)c(-c2ccc(O)c(CC=C)c2)c1 [honokiol]
